Measured values as given in patent publication US9867373B2, “Fungicidal composition having synergistic effect” (JIANGSU HUIFENG AGROCHEMICAL CO., LTD., priority 2013, dated 2018).
Values after ≈ are worked out from the molar mass of the structure shown.

Columns and labels:
[1] = tested on: downy mildew pathogens of cucumber; test: Toxicity test on downy mildew pathogens of cucumber (disease index and control effect on whole cucumber plant); type: in vivo; conditions: for ATI: actual toxicity index
rust pathogens of wheat = test: whole plant or invertebrate; type: in vivo
oomycetes = conditions: background statement; cited from earlier work

Compound: CO/C=C(/C(=O)OC)c1ccccc1Oc1cc(Oc2ccccc2C#N)ncn1 [Azoxystrobin, azoxystrobin]
- EC50 ([1]; Table 3, with azoxystrobin): 5.82 µg/mL (≈ 14.4 µM)
- ATI ([1]; Table 3, with azoxystrobin): 72.34

Compound: OC(Cc1ccccc1Cl)(Cn1nc[nH]c1=S)C1(Cl)CC1 (stereo not shown) [Prothioconazole, prothioconazole]
- EC50 (rust pathogens of wheat; Triticum aestivum): 5.12 µg/mL (≈ 14.9 µM)

Compound: Cc1cc(C2CC2)nc(Nc2ccccc2)n1 [Cyprodinil, cyprodinil]
- EC50 (rust pathogens of wheat; Triticum aestivum): 5.87 µg/mL (≈ 26.1 µM)

Compound: CC1COC(Cn2cncn2)(c2ccc(Oc3ccc(Cl)cc3)cc2Cl)O1 (stereo not shown) [Difenoconazole, difenoconazole]
- EC50 (rust pathogens of wheat; Triticum aestivum): 5.45 µg/mL (≈ 13.4 µM)

Compound: COc1ccc(C(=CC(=O)N2CCOCC2)c2ccc(Cl)cc2)cc1OC [Dimethomorph, dimethomorph]
- concentration at which an inhibitory effect is exerted (oomycetes): < 0.25 µg/mL
- ATI ([1]; Table 2, with dimethomorph): 63.9

Compound: O=C(S)c1cccc2nnsc12 [Acibenzolar, acibenzolar]
- EC50 ([1]; Table 8, with acibenzolar): 5.38 µg/mL (≈ 27.4 µM)
- ATI ([1]; Table 8, with acibenzolar): 91.45

Compound: Cc1nc(C(F)(F)F)c(C(=O)Nc2c(Br)cc(OC(F)(F)F)cc2Br)s1 [Thifluzamide, thifluzamide]
- EC50 (rust pathogens of wheat; Triticum aestivum): 5.12 µg/mL (≈ 9.7 µM)

Compound: CON=C(C(=O)OC)c1ccccc1CON=C(C)c1cccc(C(F)(F)F)c1 [Trifloxystrobin, trifloxystrobin]
- EC50 (rust pathogens of wheat; Triticum aestivum): 4.75 µg/mL (≈ 11.6 µM)

Compound: O=[N+]([O-])c1cc(C(F)(F)F)c(Cl)c([N+](=O)[O-])c1Nc1ncc(C(F)(F)F)cc1Cl [Fluazinam, fluazinam]
- EC50 ([1]; Cucumis sativus): 5.19 µg/mL (≈ 11.2 µM)
- ATI ([1]; Table 9, with fluazinam): 97.88

Compound: CO/C=C(/C(=O)OC)c1ccccc1COc1cccc(C(F)(F)F)n1 [Picoxystrobin, picoxystrobin]
- EC50 (rust pathogens of wheat; Table 15, with picoxystrobin): 5.68 µg/mL (≈ 15.5 µM)
- ATI (rust pathogens of wheat; actual toxicity index, Table 15, with picoxystrobin): 87.68

Compound: CC(C)OC(=O)N[C@H](C(=O)N[C@H](C)c1nc2ccc(F)cc2s1)C(C)C [Benthiavalicarb-isopropyl, benthiavalicarb-isopropyl]
- EC50 ([1]; Cucumis sativus): 5.41 µg/mL (≈ 14.2 µM)
- ATI ([1]; Table 1, with benthiavalicarb-isopropyl): 60.1

Compound: CSC1=N[C@@](C)(c2ccccc2)C(=O)N1Nc1ccccc1 [Fenamidone, fenamidone]
- EC50 ([1]; Cucumis sativus): 5.12 µg/mL (≈ 16.4 µM)
- ATI ([1]; Table 4, with fenamidone): 107.62

Compound: polyoxin
- EC50 ([1]; Table 6, with polyoxin): 5.24 µg/mL
- ATI ([1]; Table 6, with polyoxin): 89.89

Compound: N#Cc1sc2c(=O)c3ccccc3c(=O)c=2sc1C#N [Dithianon, dithianon]
- EC50 ([1]; Cucumis sativus): 5.34 µg/mL (≈ 18 µM)
- ATI ([1]; Table 5, with dithianon): 88.39

Compound: Fc1ccc([C@]2(Cn3cncn3)O[C@H]2c2ccccc2Cl)cc1 (racemic) [Epoxiconazole, epoxiconazole]
- EC50 (rust pathogens of wheat; Triticum aestivum): 5.29 µg/mL (≈ 16 µM)

Compound: CCC(C)(NC(=O)c1cc(Cl)c(C)c(Cl)c1)C(=O)CCl (stereo not shown) [Zoxamide, zoxamide]
- EC50 ([1]; Cucumis sativus): 5.11 µg/mL (≈ 15.2 µM)
- ATI ([1]; Table 7, with zoxamide): 95.69

Compound: CC(C)NC(=O)N1CC(=O)N(c2cc(Cl)cc(Cl)c2)C1=O [Iprodione, iprodione]
- EC50 (rust pathogens of wheat; Triticum aestivum): 5.35 µg/mL (≈ 16.2 µM)

Compound: COC(=O)N(OC)c1ccccc1COc1ccn(-c2ccc(Cl)cc2)n1 [Pyraclostrobin, pyraclostrobin]
- EC50 (rust pathogens of wheat; Triticum aestivum): 4.98 µg/mL (≈ 12.8 µM)
